This is an account of results in publication PMC11409059, “Substitution of Glu378 in EF-Tu disrupts binding to KKL-55” (microPublication Biology, 2024).

In this test the target is EF-Tu (6His-tagged EF-Tu, tufA) (Escherichia coli, UniProt P0CE47, E379A). Briefly: biochemical.

The term Kd denotes the equilibrium constant for the complex coming apart. As to `CCCn1nnnc1NC(=O)c1cccc(Cl)c1` [KKL-55], the Kd was 2.4 µM.
